{"source": "patent US20240000741A1", "about": "“ALL-TRANS RETINOIC ACID ENHANCES RADIOTHERAPY AND OVERCOMES IMMUNE SUPPRESSION FOR CANCER THERAPY” (The University of Chicago, priority 2022, published 2024)", "molecules": {"B1": {"name": "IFN-γ: interferon-gamma added to BMDC culture (protein, UniProt P01580 23-155, looked up)", "Interferon gamma": "HGTVIESLESLNNYFNSSGIDVEEKSLFLDIWRNWQKDGDMKILQSQIISFYLRLFEVLKDNQAISNNISVIESHLITTFFSNSKAKKDAFMSIAKFEVNNPQVQRQAFNELIRVVHQLLPESSLRKRKRSRC"}}, "key": {"[1]": {"test_system": "MC38 colon carcinoma tumors", "assay": "MC38 tumor growth after local ablative IR and/or RA", "type": "in vivo, mouse"}, "[2]": {"test_system": "immune cells in tumors", "assay": "Flow cytometric analysis of immune cells in treated MC38 tumors and draining lymph nodes", "type": "in vivo, mouse", "conditions": "FTY720 administration, after IR+RA treatment", "description": "Single cell suspensions were obtained as previously described (40). Cells were blocked with anti-Fc receptor (2.4 G2, BioXCell, Lebanon, New Hampshire, United States of America) and stained for live/dead with Zombie UV, followed staining using antibodies against CD45, CD4, CD8, NK1.1, CD11b, CD11c, Ly6C, Ly6G, F4/80, CD44, CD62L.\nThe following antibodies were used for high-dimensional flow analysis: BV605-CX3CR, BV650-XCR1, PB-CD11 b, BV510-CD24, BV711-CD64, BV785-F4/80, AF532-CD45, PerCP-Cy5.5-1-A/I-E, PerCP-eFluor710-Flt3, PE-Cy7-CD11c, FITC-Ly6C, PE-iNOS, PE-Dazzle 594-CD103, APC-TNF, Alexa Fluor 700-CD206, and APC-Cy7-SIRPα. For IFN-γ and GrzB (515407) staining, cells were cultured with PMA/ionomycin and brefeldin A (423303, BioLegend, San Diego, California, United States of America) for 6 hours followed by intracellular staining using BD fix/perm intracellular staining kit (554714, BD Biosciences, Franklin Lakes, New Jersey, United States of America). For TNF-α staining, cells were stimulated by PMA/ionomycin and brefeldin A for 4 hours followed by intracellular staining. Foxp3 (17-5773-82, Thermo Fisher Scientific, Waltham, Massachusetts, United States of America) Ki67 (Clone 16-A8, BioLegend, San Diego, California, United States of America) and iNOS staining were performed following Foxp3 staining protocol (00-5523-00, Thermo Fisher Scientific, Waltham, Massachusetts, United States of America). Cells were analyzed on Fortessa flow cytometer (BD Biosciences, Franklin Lakes, New Jersey, United States of America) or on Aurora spectral cytometer (Cytek Biosciences, Fremont, California, United States of America. Data was analyzed with software sold under the tradename FLOWJO software (FlowJo LLC, Ashland, Oregon, United States of America).\nImmune cells in tumors 4 days after the start of the treatment were examined. […] In CD11b+ subsets, Ly6C^+ cells, including CD11c^+Ly6C^+ cells, increased by 4-fold in tumors receiving the combination treatment. […] Next, the DC population was examined by analyzing high-dimensional flow cytometry data using traditional dendritic cell (DC) markers. Monocyte-derived dendritic cells (MoDCs) (Ly6C^+CD11 b^+CD11c^+ MHC-II^+CXCR3^+CD64^+SIRPα^+CD206^− cells), a low level of type two dendritic cells (DC2s) (Ly6C^−CD11b^+CD11c^+MHC-11^+CXCR3^+CD64^−SIRPα+CD206^−) and a very low level of type one dendritic cells (DC1s) (Ly6C^−CD11b^−CD11c^+MHC-11^+ CXCR1^+CD103^+CD64^−) were detected in IR and RA treated tumors."}, "[3]": {"test_system": "bone marrow-derived DCs (BMDCs)", "assay": "iNOS induction in bone marrow-derived dendritic cells in vitro", "type": "cell-based, mouse", "conditions": "addition of IFN-γ to BMDCs cultured with RA", "description": "Femurs and tibias from 8- to 10-week-old mice were harvested. BMDCs were derived as described (40). The cultured BMDC were collected on day 6 for further experiments. For Inf-MAC induction in vitro, bone marrow cells were cocultured with the presence of 200 μM RA. On day 6, indicated amount of IFN-γ was added directly to the culture. Cells were stained for iNOS and TNF-α after 24-36 hours and analyzed using flow cytometry."}}, "note": "Where a name gives a salt, the structure may show the parent alone."}
{"molecule": "CC(=N)NCc1cccc(CN)c1.Cl.Cl", "note": "[1400 W, N-[[-(aminomethyl)phenyl]methyl]-ethanimidamide dihydrochloride]", "values": [{"measurement": "antitumor efficacy of combined IR and RA treatment", "setting": "[1]; iNOS inhibitor 1400 W administered in vivo", "value": "significantly diminished"}]}
{"molecule": "CCCCCCCCc1ccc(CCC(N)(CO)CO)cc1", "note": "[FTY720, fingolimod hydrochloride]", "values": [{"measurement": "efficacy of IR+RA treatment", "setting": "[1]; FTY720 20 μg per dose by gavage every day for 7 days", "value": "diminished to the level of IR alone"}, {"measurement": "response to IR", "setting": "[1]; FTY720 20 μg per dose by gavage every day for 7 days, IR alone", "value": "not affected"}, {"measurement": "iNOS production in Inf-MACs in tumors and in circulating blood", "setting": "[2]", "value": "abolishes increased iNOS production"}]}
{"molecule": "B1", "values": [{"measurement": "iNOS production in BMDCs", "setting": "[3]", "value": "synergistically increased iNOS production in a dose dependent manner"}]}
